The values below come from the Kinase Knowledgebase extract (Sharma et al. 2016).

The test concerns the target MAPK14 (human) (UniProt Q16539). Kind of test: Inhibition of MAPK14 Kinase Activity.

MAPK14 (human), sequence (Q16539 whole entry, looked up): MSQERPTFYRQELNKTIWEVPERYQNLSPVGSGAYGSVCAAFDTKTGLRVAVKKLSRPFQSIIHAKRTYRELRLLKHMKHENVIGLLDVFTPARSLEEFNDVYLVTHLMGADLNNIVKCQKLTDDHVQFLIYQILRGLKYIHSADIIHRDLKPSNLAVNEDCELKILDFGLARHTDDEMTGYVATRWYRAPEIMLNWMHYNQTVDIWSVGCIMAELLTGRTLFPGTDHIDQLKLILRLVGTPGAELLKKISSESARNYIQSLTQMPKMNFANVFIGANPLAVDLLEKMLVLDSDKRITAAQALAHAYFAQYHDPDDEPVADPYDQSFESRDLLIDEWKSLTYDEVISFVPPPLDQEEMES

`Cc1ccc(C(=O)Nc2ccon2)cc1Nc1nc(N)nc(NC2CCCC2)c1C#N` registered a Ki of 0.16 nM.
With `CCn1nccc1NC(=O)c1ccc(C)c(Nc2ncnc(NC3CCCC3)c2C#N)c1`, the Ki is 14 nM.
`CCn1nccc1NC(=O)c1ccc(C)c(Nc2ncnc(NC(C)C)c2C#N)c1` had a Ki of 15 nM.
As to `CCn1nccc1NC(=O)c1ccc(C)c(Nc2nc(N)nc(NC3CCCC3)c2C#N)c1`, the IC50 stood at 1.9 nM and the Ki stood at 1.9 nM.
Compound `CCn1nccc1NC(=O)c1ccc(C)c(Nc2nc(N)nc(NC(C)C)c2C#N)c1` gave an IC50 of 1.5 nM and a Ki of 1.5 nM.
`Cc1ccc(C(=O)Nc2ccon2)cc1Nc1ncnc(NC(C)C)c1C#N` gave a Ki of 0.41 nM.
The same measure, in the same setting: with `CONC(=O)c1ccc(C)c(Nc2ncnc(NC(C)C)c2C#N)c1` the figure was 0.61 nM; with `Cc1ccc(C(=O)Nc2ccon2)cc1Nc1nc(N)nc(NC(C)C)c1C#N`, 0.057 nM.
`Cc1ccc(C(=O)Nc2ccon2)cc1Nc1ncnc(NC2CCCC2)c1C#N` returned a Ki of 1.6 nM.
Consider `CONC(=O)c1ccc(C)c(Nc2nc(N)nc(N(C)CC(C)(C)C)c2C#N)c1`, for which the Ki was 0.05 nM.
`CNc1ncnc(Nc2cc(C(=O)NOC)ccc2C)c1C#N` displayed a Ki of 16 nM.
Same read-out and setting: the figure for `CNc1nc(Nc2cc(C(=O)NOC)ccc2C)c(C#N)c(N(C)CC(C)(C)C)n1` is 0.047 nM; for `CONC(=O)c1ccc(C)c(Nc2ncnc(N(C)CC(C)(C)C)c2C#N)c1` it is 0.15 nM.
Still for that read-out and setting: the figure for `CONC(=O)c1ccc(C)c(Nc2nc(N3CCCN(C)CC3)nc(N(C)CC(C)(C)C)c2C#N)c1` is 0.057 nM; for `CCCNc1ncnc(Nc2cc(C(=O)NOC)ccc2C)c1C#N` it is 0.97 nM.
